Reference: patent US7291738B2 (dated 2007)

SMILES | melting point
Cc1ncccc1Oc1ccc(NC(=O)Nc2ccc3[nH]c4c(c3c2)CCN(C(=O)OC(C)(C)C)CC4)cn1 | 173 to 175 °C
Cc1ncccc1Oc1ccc(NC(=O)Nc2ccc3[nH]c4c(c3c2)CCNCC4)cn1 | 205 to 207 °C
Cc1ncccc1Oc1ccc(NC(=O)N2CCc3c(n(C)c4ccccc34)CC2)cn1 | 159 to 160 °C
Cc1ncccc1Oc1ccc(NC(=O)NCCc2ccccc2)cn1 | 136 to 138 °C
